Reference: patent publication US6866864B2, “Compositions and methods of use in the treatment of angiogenesis and vascular-related disorders” (priority 2000, dated 2005)

Experiments:
[1] = tested on: human smooth muscle cell migration; test: Human smooth muscle cell migration toward plasma from MI patients (modified Boyden chamber); type: cell-based; conditions: for synergy with antioxidant on the inhibition of human smooth muscle cell migration: garlic ingredients 1 μM each plus ascorbic acid 3 μM, FIG. 5; for effect on human smooth muscle cell migration toward plasma from MI patients: antioxidants alone, 3 μM each, FIG. 3
Description: Graph showing the modified Boyden chamber used to examine the effect of garlic ingredients, antioxidants, and combinations on human smooth muscle cell migration toward plasma obtained from acute myocardial infarction patients (MI) during balloon angioplasty and stent coronary intervention.
The procedure is as follow: 20 μl plasma was placed in the bottom chamber (A), smooth muscle suspension 1×10^6 cells in 5 μl with or without the various garlic active ingredients, antioxidants or combinations were placed in the top chamber (B). The chamber B was fitted over chamber A, covered and placed in a CO2 (5%)/O2 (95%) incubator for 22 hours at 37° C. The filter from chamber B was taken out of the chamber and the cells on the top were scraped off using a cell scraper. The filter was placed in formaldehyde, Triton X100, washing buffer solution, stained with Rhodamine phloyden, and then a washing solution as shown in station C (front view) and D (side view). The filter was then dried and put in a fluorescence plate reader to read the degree of fluorescence.

[2] = tested on: bFGF-induced angiogenesis on the CAM; test: FGF2 (bFGF)-induced angiogenesis in the chick chorioallantoic membrane (CAM) model; type: in vivo
Description: In Vivo Angiogenesis: Ten-day old chick embryos were purchased from Spafas, Inc. (Preston, Conn.) and were incubated at 37° with 55% humidity generally referred to as chick chorioallantoic membrane (CAM) model. A small hole was punctured in the shell concealing the air sac with a hypodermic needle. A second hole was punctured in the shell on the broadside of the egg directly over an avascular portion of the embryonic membrane, as observed during candling. A false air sac was created beneath the second hole by the application of negative pressure to the first hole, which caused the CAM to separate form the shell. A window, approximately 1.0 cm2, was cut the in the shell over the dropped CAM with the use of a small crafts grinding wheel (Dermal, Division of Emerson Electric Company (Racine, Wis.) which allowed direct access to the underlying CAM.
Filter disks of #1 filter paper (Whatman International, United Kingdom) were soaked in 3 mg/ml cortisone acetate (Sigma, St. Louis, Mo.) in a solution of 95% ethanol and water and subsequently air dried under sterile conditions. […] Blood vessel branch points in the 5 mm filter disk area were counted at 30× magnification in a blinded fashion as a size-independent quantitative indicator of vascular sprouting in response to growth factors. As angiogenesis is characterized by the sprouting of new vessels in response to growth factors, counting blood vessel branch points is a useful quantitative means of obtaining an angiogenic index. […] Data was evaluated in terms of average number of blood vessel branch points per treatment group±standard deviation of measurement. […]
Microscopic Analysis of CAM Sections: CAM tissue directly beneath FGF2-saturated filter disk was resected from embryos treated 48 hours prior with compounds or controls. […] Digital images of CAM sections adjacent to filters were collected using a 3-CCD color video camera system (Toshiba America, New York, N.Y.) and analyzed with the Image-Pro Plus software (Media Cybernetics, Silver Spring, Md.). […]

[3] = tested on: tumor growth in the CAM model; test: Chick chorioallantoic membrane tumor assay model; type: in vivo; conditions: different types of tumor; by inhibiting tumor-induced angiogenesis
Description: In addition to the angiogenesis assays described above where the effect of the garlic sulfur containing ingredient Alliin±antioxidants were evaluated, the anti-tumor efficacy for Alliin+antioxidants were evaluated as well. Ten million tumor cells were placed on the surface of each CAM and were cultured for one week. The resulting tumors were excised and cut into 50 mg fragments. Cheresh et al., Cell 58: 945-953 (1989), Brooks et al., J. Cell Biol., 122:1351 (1993) and as described herein. These fragments were placed on additional CAMs and treated topically the following day with 0.11 mg in 25 μl of Alliin with and without anti-oxidant or saline. Forty eight hours later, CAMs were excised from the egg and the number of blood vessels entering the tumors were counted (as vessel branch points).
Data presented as mean blood vessel number per treatment group (+/− standard error of measurement). Each treatment group incorporated at least ten tumors per experiment. Representative tumors were photographed at 10× magnification. Tumors were then excised from the egg and tumor weights were determined for each tumor. Data presented as mean tumor weight per treatment group (+/− standard error of measurement). Statistical analyses were performed using Student's t-test.

HUVEC = test: FGF2-induced endothelial cell tube formation on Matrigel; type: cell-based, human
Description: For the different in vitro assays human smooth muscle cells and human umbilical vein endothelial (HUVEC) cells were obtained from (Clonetics, Walkersville, Md.). Endothelial cells (EC) were grown to 80-90% confluence in Endothelial Growth Medium (EGM) containing hEGF 10 ng/ml, hydrocortisone […], gentamicin […], amphotercin-B 50 ug/ml, Blood Brain Extract 0.012 mg/ml and 2% Fetal Bovine Serum equilibrated with 95% air/5% CO2 at 37° C. HUVEC cells will be serially passed in Endothelial Growth in cell culture flasks coated with gelatin 0.2%, (Sigma, St. Louis, Mo.). Confluent cultures of endothelial cells between the 3rd and 6th passages were washes with HBSS and harvested using 0.025% trypsin/0.01% EDTA and counted by hemacytometer. […]
Microscopic Analysis of Endothetial Cell Tube Formation: […] Digital images of microtiter well sections were collected using a 3-CCD color video camera system ([…], New York, N.Y.) and analyzed with the Image-Pro Plus software (Media Cybernetics, Silver Spring, Md.). The area and major axis length of stained cells having a tubular morphology on the Matrigel surface counted from 5 images/well. Area data is expressed in units of 10^4 square microns and length data is expressed as length/area in units of mm/mm^2. […]

C=CCSSCC=C [allyl disulfide]
synergy with antioxidant on the inhibition of human smooth muscle cell migration [1]: synergy

O=C1O[C@H]([C@@H](O)CO)C(O)=C1O [ascorbic acid]
effect on human smooth muscle cell migration toward plasma from MI patients [1]: lack of effect

Alliin
efficacy on FGF2-induced angiogenesis in the CAM model ([2]; Alliin ± antioxidants, FIG. 11B, n=6): Dose-dependent efficacy | blockade of bFGF-induced angiogenesis on the CAM ([2]; applied to filter disk or injected intravenously 24 h after bFGF): at least 92+/−10% | inhibition of growth of new blood vessels induced by bFGF (vessel branch points) ([2]; applied to the growth factor saturated filter 24 h after bFGF, CAMs excised after three days): 92 +/−10% | tumor growth in the CAM model [3]: inhibited | efficacy on FGF2-induced EC tube formation (HUVEC; Alliin ± antioxidants, FIG. 10, n=6): Concentration-dependent efficacy | inhibition of cytokine stimulated tube formation (HUVEC; HUVEC, FGF2 50 ng/ml, alliin 0-0.011 mg): 90-100% | synergy with antioxidant on the inhibition of human smooth muscle cell migration [1]: synergy | inhibition of smooth muscle cell migration toward plasma from MI subjects ([1]; qualitative, micrographs treated vs untreated, FIG. 4): Inhibition of smooth muscle cell migration

ethylene diphenyl urea [EDU]
effect on human smooth muscle cell migration toward plasma from MI patients [1]: lack of effect
